Results on 15 compounds are retold here after ChEMBL document CHEMBL1201862, “PubChem BioAssay data set” (2004).

SMILES strings stand for the structures.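 The compound was tested at five concentrations on cells cultured in 96-well plates, with a 48-hour exposure period. GI50 is the concentration that inhibits growth by half.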 Activity calls are given as the source filed them. No stated cut-off is given here; in the data, active = GI50 up to about 1.1 µM and inactive = higher.

What all share (assay): inhibition of tumour cell growth, NCI panel, 48 h
Assay [1] relates to 786-0.
Assay [2] concerns A498.
Assay [3] deals with CCRF-CEM.
Assay [4] deals with HCT-15.
Assay [5] relates to IGROV-1.
In assay [6] the test system is K562.
In assay [7] the test system is KM12.
The subject of assay [8] is OVCAR-5.
Assay [9] concerns SF-295.
Assay [10] concerns SK-MEL-2.
Assay [11] deals with SK-OV-3.
In assay [12] the test system is U-251.
Assay [13] concerns UO-31.
Assay [14] relates to RPMI-8226.

On to `C=C(C)C1CC=C(C(=O)O)CC1` (centres undefined), for which the GI50 in [1] was 1410 µM (inactive); in [2] it was 1210 µM (inactive); in assay [3] it was 863 µM (inactive); in assay [4], 871 µM; in assay [5], 774 µM (inactive); in [6], 1200 µM (inactive). Further, the GI50 in [7] was 859 µM (inactive); in [8], 1660 µM (inactive); in [9] it was 1090 µM (inactive); in assay [10], 1170 µM (inactive); in assay [11], 2070 µM (inactive); in assay [12], 1060 µM (inactive). The GI50 in [13] is 1190 µM (inactive).
As for `O=C(Nc1ccccc1)n1cc(-c2ccccn2)c(N2CCOCC2)n1`, the GI50 in [1] was 4.49 µM (inactive); in assay [2], 4.11 µM (inactive); in assay [3], 5.48 µM (inactive); in [4] it was 4.47 µM; in assay [5] it was 12 µM (inactive); in assay [6] it was 3.58 µM (inactive). The GI50 in assay [7] was 1.79 µM (inactive); in [14] it was 4.27 µM (inactive); in [9] it was 1.9 µM (inactive); in [11], 9.84 µM (inactive); in [12] it was 4.94 µM (inactive); in assay [13] it was 11.8 µM (inactive).
As to `N#CC(c1ccc(Cl)cc1)c1cccc(Cl)n1` (centres undefined), the GI50 in assay [1] was 82.2 µM (inactive); in [2], 74.8 µM (inactive); in assay [3], > 100 µM (inactive); in assay [6], 58.9 µM (inactive); in assay [7], 78.3 µM (inactive); in assay [8], > 100 µM (inactive). The GI50 was 51.1 µM (inactive) in assay [14]; 61.9 µM (inactive) in assay [9]; 54.8 µM (inactive) in assay [10]; 42.1 µM (inactive) in assay [11]; 97.9 µM (inactive) in assay [12]; 28.1 µM (inactive) in assay [13].
For the compound `CC1=CC(=O)NP(=O)(Oc2ccc(C)cc2)N1` (centres undefined), the GI50 in assay [1] was > 100 µM (inactive); in [2], > 100 µM (inactive); in [3] it was > 100 µM (inactive); in [4], above 100 µM; in assay [5], > 100 µM (inactive); in assay [6], > 100 µM (inactive). The GI50 in [7], in assay [8], in assay [14], in [9], in assay [10] and in assay [11] was > 100 µM (inactive) in each case. Besides, the GI50 in assay [12] and in assay [13] was > 100 µM (inactive) throughout.
For the compound `CCCOCN1COCN/C1=N\C#N`, the GI50 in assay [1] was 22 µM (inactive); in [2], > 100 µM (inactive); in assay [4], 17.1 µM; in assay [5], > 100 µM (inactive); in assay [6], > 100 µM (inactive); in [7], > 100 µM (inactive). Moreover, the GI50 is > 100 µM (inactive) in assay [8]; 69.7 µM (inactive) in assay [14]; > 100 µM (inactive) in [9]; > 100 µM (inactive) in assay [10]; > 100 µM (inactive) in assay [11]; 21.6 µM (inactive) in assay [12]. The GI50 in assay [13] was > 100 µM (inactive).
As to `COc1ccc([C@@H]2OC(=O)C3C2C(=O)O[C@H]3c2ccc(OC)cc2)cc1` (some centres undefined), the GI50 in [1] was > 100 µM (inactive); in [2] it was > 100 µM (inactive); in assay [3], > 100 µM (inactive); in [4], above 100 µM; in assay [5], > 100 µM (inactive); in [6] it was > 100 µM (inactive). Also, the GI50 in assay [7], in assay [14], in assay [9], in assay [10], in [11] and in assay [12] was > 100 µM (inactive) in each case. Besides, the GI50 in assay [13] is > 100 µM (inactive).
Consider `Cc1ccc(Sc2ccc(C)cc2[N+](=O)[O-])c([N+](=O)[O-])c1`, for which the GI50 in [1] is > 100 µM (inactive); in assay [2], > 100 µM (inactive); in [3], > 100 µM (inactive); in [4], above 100 µM; in [5], > 100 µM (inactive); in assay [6] it was > 100 µM (inactive). Besides, the GI50 in assay [7], in assay [8], in assay [14], in [9], in assay [10] and in [11] was > 100 µM (inactive) each time. Moreover, the GI50 in assay [12] and in [13] was > 100 µM (inactive) in each case.
For `CCOC(=O)[C-]([N+]#N)[Si](C)(C)C`, the GI50 is > 100 µM (inactive) in assay [1]; > 100 µM (inactive) in assay [2]; 27.5 µM in assay [4]; > 100 µM (inactive) in assay [5]; > 100 µM (inactive) in assay [7]; > 100 µM (inactive) in assay [8]. Besides, the GI50 is > 100 µM (inactive) in assay [9], > 100 µM (inactive) in assay [10] and 24.2 µM (inactive) in [12].
As for `Cc1cc(=O)n(-c2ccccc2)c(=O)o1`, the GI50 in assay [1] was > 100 µM (inactive); in assay [2] it was > 100 µM (inactive); in assay [3], > 100 µM (inactive); in assay [4] it was above 100 µM; in [5] it was > 100 µM (inactive); in [6] it was > 100 µM (inactive). In addition, the GI50 in [7] was > 100 µM (inactive); in assay [8] it was > 100 µM (inactive); in [14], > 100 µM (inactive); in assay [9], 49.5 µM (inactive); in assay [10] it was > 100 µM (inactive); in [11], > 100 µM (inactive). Also, the GI50 in assay [12] and in [13] was > 100 µM (inactive) in each case.
In the case of `O=C(COc1ccc(Cl)cc1)N1CCN(C(=O)COc2ccc(Cl)cc2)c2ccccc21`, the GI50 was 64.9 µM (inactive) in assay [1]; 74.8 µM (inactive) in assay [2]; 34 µM (inactive) in assay [3]; 50.7 µM (inactive) in [5]; 37.6 µM (inactive) in assay [6]; 57 µM (inactive) in assay [7]. The GI50 in assay [8] was 70 µM (inactive); in assay [14] it was 20.6 µM (inactive); in [9], 54.5 µM (inactive); in assay [10], 28.1 µM (inactive); in assay [11], 81.5 µM (inactive); in [12], 74 µM (inactive). In addition, the GI50 in [13] was 7.23 µM (inactive).
As for `COC(=O)C(=O)C(C(=O)C(=O)Nc1ccc(C)cc1C)c1nc2ccccc2nc1O` (centres undefined), the GI50 in assay [1] is 77.4 µM (inactive); in assay [2], 19.5 µM (inactive); in assay [3], 4.99 µM (inactive); in assay [4] it was 31.6 µM; in [5] it was 32.5 µM (inactive); in [6], 42.5 µM (inactive). The GI50 was 64.3 µM (inactive) in assay [7]; 30.9 µM (inactive) in assay [8]; 35 µM (inactive) in assay [14]; > 100 µM (inactive) in assay [9]; 54.3 µM (inactive) in assay [10]; 40.1 µM (inactive) in [11]. The GI50 is 57.1 µM (inactive) in [12] and 30.9 µM (inactive) in [13].
`CC(=O)OCC1OC(N2C(=O)C(=O)c3ccccc32)C(OC(C)=O)C(OC(C)=O)C1OC(C)=O` (centres undefined): the GI50 in [1] was > 100 µM (inactive); in assay [2], > 100 µM (inactive); in assay [3], > 100 µM (inactive); in assay [4] it was above 100 µM; in assay [5], > 100 µM (inactive); in assay [6], > 100 µM (inactive). The GI50 in assay [7], in [14], in assay [9], in [10], in [11] and in assay [12] was > 100 µM (inactive) each time. For the same compound, the GI50 in [13] was > 100 µM (inactive).
On to `CC[C@H]1[C@@H](C)C=C[C@@H](C)N1S(=O)(=O)c1ccc(C)cc1`, for which the GI50 in assay [1] is > 100 µM (inactive); in [2], > 100 µM (inactive); in [3] it was > 100 µM (inactive); in assay [4] it was 61.2 µM; in assay [6], 89.9 µM (inactive); in assay [7] it was > 100 µM (inactive). Also, the GI50 in [8] is > 100 µM (inactive); in [14] it was 34.1 µM (inactive); in [9], 95.9 µM (inactive); in assay [10] it was 19.8 µM (inactive); in assay [11], > 100 µM (inactive); in assay [12], > 100 µM (inactive). Also, the GI50 in [13] was 5.26 µM (inactive).
`Cc1c(Cl)ccc2[s+]snc12`: the GI50 in assay [1] was 19.1 µM (inactive); in assay [2], 68.2 µM (inactive); in assay [3], 23.2 µM (inactive); in assay [4], 46.2 µM; in assay [5], 48.8 µM (inactive); in [6] it was 22.6 µM (inactive). Also, the GI50 in assay [7] is 43.1 µM (inactive); in assay [8] it was > 100 µM (inactive); in assay [9] it was > 100 µM (inactive); in [10], 29.2 µM (inactive); in assay [11], > 100 µM (inactive); in assay [12] it was 25.3 µM (inactive). Moreover, the GI50 in assay [13] is 23.9 µM (inactive).
As to `O=C1C2C3C=C4c5ccccc5N(c5ccccc5)C4(C2C(=O)N1c1ccc(Cl)cc1)[C@H]1C(=O)N(c2ccc(Cl)cc2)C(=O)[C@@H]31` (some centres undefined), the GI50 was > 100 µM (inactive) in assay [1]; > 100 µM (inactive) in assay [2]; > 100 µM (inactive) in [3]; above 100 µM in [4]; > 100 µM (inactive) in assay [5]; > 100 µM (inactive) in assay [6]. Further, the GI50 in [7] was > 100 µM (inactive); in assay [8] it was > 100 µM (inactive); in [14], 22.2 µM (inactive); in [9] it was > 100 µM (inactive); in assay [10], > 100 µM (inactive); in assay [11] it was > 100 µM (inactive). The GI50 in [12] and in assay [13] was > 100 µM (inactive) each time.
